PubChem BioAssay (NCI)
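Compound exposure: 48 hours, 5 concentrations, 96-well plates. The concentration for 50% growth inhibition is given as GI50. Definition used: TGI = concentration required for complete inhibition of growth.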

Columns and labels:
Assay in all cases: growth of human tumour cells (NCI), 48 h
MALME-3M melanoma = system: MALME-3M melanoma
ACHN renal = system: ACHN renal
SK-MEL-28 melanoma = system: SK-MEL-28 melanoma
MCF7 breast = system: MCF7 breast
HOP-62 NSCLC = system: HOP-62 NSCLC
SK-OV-3 ovarian = system: SK-OV-3 ovarian
UACC-62 melanoma = system: UACC-62 melanoma
CCRF-CEM leukemia = system: CCRF-CEM leukemia
SN12C renal = system: SN12C renal
HT29 colon = system: HT29 colon

Q: `O=c1[nH]c(-c2ccc(C(F)(F)F)cc2)nc2c1CSCC2` was tested. Which GI50 (MALME-3M melanoma) did it give?
A: The GI50 was 30.9 µM.

Q: And the TGI (MALME-3M melanoma)?
A: The TGI was > 100 µM.

Q: And the GI50 (ACHN renal)?
A: Its GI50 is 32.9 µM.

Q: What about the TGI (ACHN renal) of the same compound?
A: Its TGI is > 100 µM.

Q: What about the GI50 (SK-MEL-28 melanoma) of the same compound?
A: The GI50 was 80.3 µM.

Q: What about the TGI (SK-MEL-28 melanoma) of the same compound?
A: Its TGI is > 100 µM.

Q: What about the GI50 (MCF7 breast) of the same compound?
A: Its GI50 is > 100 µM.

Q: What about the TGI (MCF7 breast) of the same compound?
A: The TGI was > 100 µM.

Q: And the GI50 (HOP-62 NSCLC)?
A: The GI50 was 17.5 µM.

Q: What about the TGI (HOP-62 NSCLC) of the same compound?
A: Its TGI is 51.2 µM.

Q: And the GI50 (SK-OV-3 ovarian)?
A: The GI50 was 30 µM.

Q: And the TGI (SK-OV-3 ovarian)?
A: The TGI was 99.8 µM.

Q: What about the GI50 (UACC-62 melanoma) of the same compound?
A: Its GI50 is > 100 µM.

Q: What about the TGI (UACC-62 melanoma) of the same compound?
A: The TGI was > 100 µM.

Q: And the GI50 (CCRF-CEM leukemia)?
A: Its GI50 is > 100 µM.

Q: And the TGI (CCRF-CEM leukemia)?
A: Its TGI is > 100 µM.

Q: What about the GI50 (SN12C renal) of the same compound?
A: The GI50 was > 100 µM.

Q: What about the TGI (SN12C renal) of the same compound?
A: Its TGI is > 100 µM.

Q: What about the GI50 (HT29 colon) of the same compound?
A: The GI50 was > 76.8 µM.

Q: And the TGI (HT29 colon)?
A: Its TGI is > 100 µM.

Q: `COc1ccc(/C=C2\N=C3SC=C(N)N3C2=O)cc1` was tested. Which GI50 (MALME-3M melanoma) did it give?
A: Its GI50 is 0.23 µM.

Q: And the TGI (MALME-3M melanoma)?
A: Its TGI is 1.52 µM.

Q: And the GI50 (ACHN renal)?
A: The GI50 was 0.711 µM.

Q: What about the TGI (ACHN renal) of the same compound?
A: Its TGI is 2.43 µM.

Q: What about the GI50 (SK-MEL-28 melanoma) of the same compound?
A: The GI50 was 1.29 µM.

Q: And the TGI (SK-MEL-28 melanoma)?
A: Its TGI is 4.75 µM.

Q: What about the GI50 (MCF7 breast) of the same compound?
A: The GI50 was 0.459 µM.

Q: What about the TGI (MCF7 breast) of the same compound?
A: The TGI was 6.29 µM.

Q: What about the GI50 (HOP-62 NSCLC) of the same compound?
A: Its GI50 is 2.23 µM.

Q: And the TGI (HOP-62 NSCLC)?
A: The TGI was 15.7 µM.

Q: And the GI50 (SK-OV-3 ovarian)?
A: The GI50 was 2.16 µM.

Q: And the TGI (SK-OV-3 ovarian)?
A: The TGI was 11.7 µM.

Q: And the GI50 (UACC-62 melanoma)?
A: Its GI50 is 1.07 µM.

Q: What about the TGI (UACC-62 melanoma) of the same compound?
A: The TGI was 2.76 µM.

Q: What about the GI50 (CCRF-CEM leukemia) of the same compound?
A: Its GI50 is 0.4 µM.

Q: And the TGI (CCRF-CEM leukemia)?
A: Its TGI is 4.33 µM.

Q: And the GI50 (SN12C renal)?
A: The GI50 was 1.57 µM.

Q: What about the TGI (SN12C renal) of the same compound?
A: The TGI was 7.35 µM.

Q: What about the GI50 (HT29 colon) of the same compound?
A: The GI50 was 1.21 µM.

Q: What about the TGI (HT29 colon) of the same compound?
A: The TGI was 3.37 µM.

Q: `Cn1cnc([N+](=O)[O-])c1Sc1ncnc2c1ncn2C1OC(CO)C(O)C1O` (stereo not given) was tested. Which GI50 (MALME-3M melanoma) did it give?
A: The GI50 was 46.3 µM.

Q: What about the TGI (MALME-3M melanoma) of the same compound?
A: The TGI was > 100 µM.

Q: And the GI50 (ACHN renal)?
A: Its GI50 is 25.7 µM.

Q: And the TGI (ACHN renal)?
A: The TGI was > 100 µM.

Q: What about the GI50 (SK-MEL-28 melanoma) of the same compound?
A: Its GI50 is 72.2 µM.

Q: What about the TGI (SK-MEL-28 melanoma) of the same compound?
A: The TGI was > 100 µM.

Q: What about the GI50 (MCF7 breast) of the same compound?
A: Its GI50 is 1.79 µM.

Q: What about the TGI (MCF7 breast) of the same compound?
A: Its TGI is > 100 µM.

Q: What about the GI50 (HOP-62 NSCLC) of the same compound?
A: Its GI50 is 2 µM.

Q: And the TGI (HOP-62 NSCLC)?
A: The TGI was > 100 µM.

Q: And the GI50 (SK-OV-3 ovarian)?
A: Its GI50 is 0.564 µM.

Q: What about the TGI (SK-OV-3 ovarian) of the same compound?
A: The TGI was > 100 µM.

Q: And the GI50 (UACC-62 melanoma)?
A: Its GI50 is 5.98 µM.

Q: What about the TGI (UACC-62 melanoma) of the same compound?
A: The TGI was > 100 µM.

Q: What about the GI50 (CCRF-CEM leukemia) of the same compound?
A: The GI50 was 21.7 µM.

Q: And the TGI (CCRF-CEM leukemia)?
A: Its TGI is > 100 µM.

Q: What about the GI50 (SN12C renal) of the same compound?
A: The GI50 was 41.9 µM.

Q: And the TGI (SN12C renal)?
A: The TGI was > 100 µM.

Q: What about the GI50 (HT29 colon) of the same compound?
A: Its GI50 is 7.3 µM.

Q: What about the TGI (HT29 colon) of the same compound?
A: The TGI was > 100 µM.

Q: With `COc1ccc(/C=C2\COc3ccc(-c4ccccc4)cc3C2=O)cc1O` as the compound, how does the GI50 (MALME-3M melanoma) read?
A: Its GI50 is 1.04 µM.

Q: And the TGI (MALME-3M melanoma)?
A: Its TGI is 4.31 µM.

Q: What about the GI50 (ACHN renal) of the same compound?
A: The GI50 was 3.13 µM.

Q: What about the TGI (ACHN renal) of the same compound?
A: Its TGI is 13.1 µM.

Q: And the GI50 (SK-MEL-28 melanoma)?
A: Its GI50 is 1.88 µM.

Q: And the TGI (SK-MEL-28 melanoma)?
A: The TGI was 3.96 µM.

Q: What about the GI50 (MCF7 breast) of the same compound?
A: The GI50 was 1.58 µM.

Q: And the TGI (MCF7 breast)?
A: The TGI was 13 µM.

Q: What about the GI50 (HOP-62 NSCLC) of the same compound?
A: The GI50 was 5.83 µM.

Q: And the TGI (HOP-62 NSCLC)?
A: Its TGI is 19.4 µM.

Q: What about the GI50 (SK-OV-3 ovarian) of the same compound?
A: Its GI50 is 4.16 µM.

Q: What about the TGI (SK-OV-3 ovarian) of the same compound?
A: Its TGI is 22.3 µM.

Q: What about the GI50 (UACC-62 melanoma) of the same compound?
A: Its GI50 is 3.59 µM.

Q: What about the TGI (UACC-62 melanoma) of the same compound?
A: Its TGI is 18.1 µM.

Q: And the GI50 (CCRF-CEM leukemia)?
A: The GI50 was 2.03 µM.

Q: What about the TGI (CCRF-CEM leukemia) of the same compound?
A: Its TGI is > 100 µM.

Q: And the GI50 (SN12C renal)?
A: Its GI50 is 3.78 µM.

Q: And the TGI (SN12C renal)?
A: The TGI was 14.5 µM.

Q: What about the GI50 (HT29 colon) of the same compound?
A: The GI50 was 1.46 µM.

Q: And the TGI (HT29 colon)?
A: Its TGI is 3.85 µM.

Q: For `CCS/C(Nc1ccccc1)=C(\C#N)C(=O)Nc1ccc(OC)cc1`, which GI50 (MALME-3M melanoma) is on record?
A: Its GI50 is 47.3 µM.

Q: What about the TGI (MALME-3M melanoma) of the same compound?
A: Its TGI is > 100 µM.

Q: And the GI50 (ACHN renal)?
A: The GI50 was 5.04 µM.

Q: And the TGI (ACHN renal)?
A: The TGI was > 100 µM.

Q: And the GI50 (SK-MEL-28 melanoma)?
A: Its GI50 is 15.3 µM.

Q: What about the TGI (SK-MEL-28 melanoma) of the same compound?
A: Its TGI is > 100 µM.

Q: And the GI50 (MCF7 breast)?
A: The GI50 was 2.71 µM.

Q: And the TGI (MCF7 breast)?
A: Its TGI is > 100 µM.

Q: And the GI50 (HOP-62 NSCLC)?
A: Its GI50 is 5.62 µM.

Q: What about the TGI (HOP-62 NSCLC) of the same compound?
A: Its TGI is > 100 µM.

Q: What about the GI50 (SK-OV-3 ovarian) of the same compound?
A: The GI50 was 3.28 µM.

Q: And the TGI (SK-OV-3 ovarian)?
A: Its TGI is 50.2 µM.

Q: What about the GI50 (UACC-62 melanoma) of the same compound?
A: The GI50 was 2.58 µM.

Q: And the TGI (UACC-62 melanoma)?
A: Its TGI is > 100 µM.

Q: And the GI50 (CCRF-CEM leukemia)?
A: The GI50 was 1.83 µM.

Q: What about the TGI (CCRF-CEM leukemia) of the same compound?
A: The TGI was > 100 µM.

Q: And the GI50 (SN12C renal)?
A: The GI50 was 5.91 µM.

Q: And the TGI (SN12C renal)?
A: The TGI was > 100 µM.

Q: And the GI50 (HT29 colon)?
A: The GI50 was 3.47 µM.

Q: What about the TGI (HT29 colon) of the same compound?
A: The TGI was 33.3 µM.

Q: How did the GI50 (MALME-3M melanoma) turn out when `C[Se]C(=O)CC1=C2C=C(F)C=CC2/C(=C\c2ccc(S(C)=O)cc2)C1C` (stereo not given) was run?
A: Its GI50 is 0.156 µM.

Q: And the TGI (MALME-3M melanoma)?
A: The TGI was 0.4 µM.

Q: What about the GI50 (ACHN renal) of the same compound?
A: The GI50 was 0.154 µM.

Q: And the TGI (ACHN renal)?
A: The TGI was 3.07 µM.

Q: What about the GI50 (SK-MEL-28 melanoma) of the same compound?
A: The GI50 was 0.0343 µM.

Q: What about the TGI (SK-MEL-28 melanoma) of the same compound?
A: The TGI was 0.891 µM.

Q: And the GI50 (MCF7 breast)?
A: The GI50 was 0.152 µM.

Q: What about the TGI (MCF7 breast) of the same compound?
A: Its TGI is 10.4 µM.

Q: And the GI50 (HOP-62 NSCLC)?
A: The GI50 was < 0.01 µM.

Q: And the TGI (HOP-62 NSCLC)?
A: Its TGI is 0.331 µM.

Q: And the GI50 (SK-OV-3 ovarian)?
A: The GI50 was 0.0493 µM.

Q: What about the TGI (SK-OV-3 ovarian) of the same compound?
A: The TGI was 1.58 µM.

Q: And the GI50 (UACC-62 melanoma)?
A: The GI50 was 0.41 µM.

Q: And the TGI (UACC-62 melanoma)?
A: Its TGI is 2.3 µM.

Q: What about the GI50 (CCRF-CEM leukemia) of the same compound?
A: Its GI50 is 0.208 µM.

Q: And the TGI (CCRF-CEM leukemia)?
A: Its TGI is > 20.6 µM.

Q: What about the GI50 (SN12C renal) of the same compound?
A: The GI50 was 0.0401 µM.

Q: What about the TGI (SN12C renal) of the same compound?
A: Its TGI is 1.34 µM.

Q: And the GI50 (HT29 colon)?
A: Its GI50 is < 0.0318 µM.

Q: What about the TGI (HT29 colon) of the same compound?
A: Its TGI is > 100 µM.
